Measurements as given in BindingDB's records for patent WO2025049746 (Eikon Therapeutics, 2025).

Legend:
[1] = target: T1, Bifunctional 3'-5' exonuclease/ATP-dependent helicase WRN [480-1251] (UniProt Q14191); test: Biochemical Activity Assays
T1 construct: 480-1251

[2] = target: Bifunctional 3'-5' exonuclease/ATP-dependent helicase WRN (Homo sapiens, UniProt Q14191); test: ADP-Glo Kinase Assay
Experimental: ATPase activity was measured using the ADP-Glo Kinase Assay following the manufacturers recommended protocol.

Chain of Bifunctional 3'-5' exonuclease/ATP-dependent helicase WRN (Q14191 whole entry): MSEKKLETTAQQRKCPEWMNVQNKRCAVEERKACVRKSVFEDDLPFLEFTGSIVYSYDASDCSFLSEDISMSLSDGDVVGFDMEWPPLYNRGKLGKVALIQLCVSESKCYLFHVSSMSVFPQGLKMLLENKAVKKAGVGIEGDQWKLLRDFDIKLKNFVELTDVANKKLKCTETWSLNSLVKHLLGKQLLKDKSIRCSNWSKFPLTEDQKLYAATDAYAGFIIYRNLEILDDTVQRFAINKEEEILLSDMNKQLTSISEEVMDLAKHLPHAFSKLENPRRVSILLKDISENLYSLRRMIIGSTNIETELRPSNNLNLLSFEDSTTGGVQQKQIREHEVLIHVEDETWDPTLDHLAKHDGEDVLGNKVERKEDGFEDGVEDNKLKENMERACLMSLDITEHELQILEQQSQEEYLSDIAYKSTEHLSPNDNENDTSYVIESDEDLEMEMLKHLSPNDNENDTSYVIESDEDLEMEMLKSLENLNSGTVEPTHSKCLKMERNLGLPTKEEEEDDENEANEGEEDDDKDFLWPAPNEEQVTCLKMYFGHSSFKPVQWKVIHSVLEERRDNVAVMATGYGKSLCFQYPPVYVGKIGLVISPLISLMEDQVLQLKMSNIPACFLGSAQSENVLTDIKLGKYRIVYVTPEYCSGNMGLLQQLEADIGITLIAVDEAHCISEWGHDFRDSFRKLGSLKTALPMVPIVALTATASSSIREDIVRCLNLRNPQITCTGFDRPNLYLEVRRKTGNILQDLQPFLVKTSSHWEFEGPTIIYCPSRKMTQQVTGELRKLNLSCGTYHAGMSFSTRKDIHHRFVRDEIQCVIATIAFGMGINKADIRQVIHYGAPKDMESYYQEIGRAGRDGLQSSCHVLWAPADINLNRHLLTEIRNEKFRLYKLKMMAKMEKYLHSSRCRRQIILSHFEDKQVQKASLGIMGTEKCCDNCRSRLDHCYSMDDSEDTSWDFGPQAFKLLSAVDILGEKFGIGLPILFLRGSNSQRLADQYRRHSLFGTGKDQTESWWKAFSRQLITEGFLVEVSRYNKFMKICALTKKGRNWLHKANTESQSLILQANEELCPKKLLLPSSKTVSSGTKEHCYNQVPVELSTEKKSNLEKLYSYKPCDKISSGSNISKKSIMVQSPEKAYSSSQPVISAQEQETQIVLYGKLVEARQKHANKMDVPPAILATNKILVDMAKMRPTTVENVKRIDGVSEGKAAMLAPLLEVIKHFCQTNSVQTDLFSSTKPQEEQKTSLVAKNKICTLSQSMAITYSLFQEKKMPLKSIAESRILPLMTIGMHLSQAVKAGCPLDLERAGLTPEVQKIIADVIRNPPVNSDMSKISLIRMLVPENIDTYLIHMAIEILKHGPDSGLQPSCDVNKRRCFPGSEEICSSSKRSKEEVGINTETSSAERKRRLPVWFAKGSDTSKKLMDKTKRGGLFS
T1 sequence (Q14191 480-1251): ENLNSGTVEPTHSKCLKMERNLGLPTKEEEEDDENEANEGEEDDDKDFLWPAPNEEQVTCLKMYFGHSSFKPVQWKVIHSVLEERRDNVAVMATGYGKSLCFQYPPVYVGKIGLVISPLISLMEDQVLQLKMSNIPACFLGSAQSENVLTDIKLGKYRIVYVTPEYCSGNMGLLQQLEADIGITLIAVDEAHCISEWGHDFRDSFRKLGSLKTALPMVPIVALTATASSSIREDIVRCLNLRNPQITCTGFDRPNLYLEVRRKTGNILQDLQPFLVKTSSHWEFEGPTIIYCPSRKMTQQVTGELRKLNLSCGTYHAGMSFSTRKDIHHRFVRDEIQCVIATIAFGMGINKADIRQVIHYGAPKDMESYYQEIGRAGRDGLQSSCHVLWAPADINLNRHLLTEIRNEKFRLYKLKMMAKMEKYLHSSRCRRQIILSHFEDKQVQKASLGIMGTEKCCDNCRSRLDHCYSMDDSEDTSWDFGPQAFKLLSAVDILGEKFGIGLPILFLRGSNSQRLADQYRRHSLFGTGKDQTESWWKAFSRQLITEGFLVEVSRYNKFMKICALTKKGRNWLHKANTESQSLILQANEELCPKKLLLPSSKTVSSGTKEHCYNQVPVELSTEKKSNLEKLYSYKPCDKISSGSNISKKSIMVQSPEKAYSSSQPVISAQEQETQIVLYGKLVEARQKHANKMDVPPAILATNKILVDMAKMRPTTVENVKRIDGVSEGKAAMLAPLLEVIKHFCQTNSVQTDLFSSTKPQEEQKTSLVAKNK

SMILES | IC50 [1] [nM] | IC50 [2] [nM]
CCc1c(N2CCN(C(=O)c3ncnc(C)c3O)CC2)c(=O)n2nc(-c3ccc4nc(C)ccc4c3)nc2n1CC(=O)Nc1ccc(C(F)(F)F)cc1Cl [WO2025049746, Example 323] | 28 | 26
CCc1c(N2CCN(C(=O)c3ncnc(C)c3O)CC2)c(=O)n2nc(-c3cc4cn(C(F)F)nc4cc3F)nc2n1CC(=O)Nc1ccc(C(F)(F)F)cc1Cl [WO2025049746, Example 291] | 31 | 30
CCc1c(N2CCN(C(=O)c3ncnc(C)c3O)CC2)c(=O)n2nc(-c3cnn4c3CCCC4)nc2n1CC(=O)Nc1ccc(C(F)(F)F)cc1Cl [WO2025049746, Example 167] | 41 | 60
CCc1c(N2CC[C@H](C)N(C(=O)c3ncnc(C)c3O)CC2)c(=O)n2nc(C3=CCOCC3)nc2n1CC(=O)Nc1ccc(C(F)(F)F)cc1Cl [WO2025049746, Example 342] | 420 | 1800
CCc1c(N2CC[C@@H]3[C@@H]2CCCN3C(=O)c2ncnc(C)c2O)c(=O)n2nc(-c3ccc4c(c3)COC4)nc2n1CC(=O)Nc1ccc(C(F)(F)F)cc1Cl [WO2025049746, Example 438] | 28 | 25
CCc1c(N2CCN(C(=O)c3ncnc(C)c3O)CC2)c(=O)n2nc(N3CCC3)nc2n1CC(=O)Nc1ccc(C(F)(F)F)cc1Cl [WO2025049746, Example 28] | 60.3 | 90.9
CCc1c(N2CCN(C(=O)c3ncnc(C)c3O)CC2)c(=O)n2nc(-c3cccc4c3OCO4)nc2n1CC(=O)Nc1c(Cl)cc(C(F)(F)F)c2c1CC2 [WO2025049746, Example 385] | 87 | 96
CCc1c(N2CCN(C(=O)c3ncnc(C)c3O)CC2)c(=O)n2nc(-c3ccc4c(c3)C[C@@H](OC)C4)nc2n1CC(=O)Nc1ccc(C(F)(F)F)cc1Cl [WO2025049746, Example 182] | 31 | 37
CCc1c(N2CCN(C(=O)c3cccc4[nH]c(=O)[nH]c34)CC2)c(=O)n2nc(C3=CCOCC3)nc2n1CC(=O)Nc1ccc(C(F)(F)F)cc1Cl [WO2025049746, Example 51] | 43.9 | 57.1
CCc1c(N2CCN(C(=O)c3ncnc(C)c3O)CC2)c(=O)n2nc(N(C)C)nc2n1CC(=O)Nc1c(Cl)cc(C(F)(F)F)c2c1CC2 [WO2025049746, Example 387] | 32 | 41
CCc1c(N2CCN(S(C)(=O)=O)CC2)c(=O)n2nc(C3=CCOCC3)nc2n1CC(=O)Nc1ccc(C(F)(F)F)cc1Cl [WO2025049746, Example 59] | 33.4 | 83.5
CCc1c(N2CCN(C(=O)c3ncnc(C)c3O)CC2)c(=O)n2nc(-c3cccc4c3OCCC4)nc2n1CC(=O)Nc1ccc(C(F)(F)F)cc1Cl [WO2025049746, Example 160] | 34 | 51
CCc1c(N2CCN(C(=O)c3nc4n(c(=O)c3O)CCOC4)CC2)c(=O)n2nc(N3C[C@H]4COC[C@H]4C3)nc2n1CC(=O)Nc1ccc(C(F)(F)F)cc1Cl [WO2025049746, Example 93] | 320 | 381
CCc1c(N2CCN(C(=O)c3ncnc(C)c3O)CC2)c(=O)n2nc(-c3cccc4c3CCCO4)nc2n1CC(=O)Nc1ccc(C(F)(F)F)cc1Cl [WO2025049746, Example 159] | 82 | 231
CCc1c(N2CCN(C(=O)c3ncnc(C)c3O)CC2)c(=O)n2nc(-c3ccc4c(c3)COC4)nc2n1CC(=O)Nc1c(Cl)cc(C(F)(F)F)cc1OC1CC1 [WO2025049746, Example 414] | 1130 | 2370
CCc1c(N2CCN(C(=O)c3ncnc(C)c3O)CC2)c(=O)n2nc(-c3cc(C)n4nccc4c3)nc2n1CC(=O)Nc1ccc(C(F)(F)F)cc1Cl [WO2025049746, Example 240] | 27 | 24
CCc1c(N2CCN(C(=O)c3ncnc(C)c3O)CC2)c(=O)n2nc(-c3ccc4c(c3)CCC4OC(F)F)nc2n1CC(=O)Nc1ccc(C(F)(F)F)cc1Cl (stereo unspecified) [WO2025049746, Example 227] | 89 | 95
CCc1c(N2CCN(C(=O)c3ncnc(C)c3O)C[C@@H]2C)c(=O)n2nc(-c3ccc4c(c3)COC4(C)C)nc2n1CC(=O)Nc1ccc(C(F)(F)F)cc1Cl [WO2025049746, Example 453] | 50 | 39
CCc1c(N2CCN(C(=O)c3ncnc(C)c3O)CC2)c(=O)n2nc(-c3cccc4c3OCCO4)nc2n1CC(=O)Nc1ccc(C(F)(F)F)cc1Cl [WO2025049746, Example 2] | 18.7 | 27.1
CCc1c(N2CCN(C(=O)c3ncnc(C)c3O)CC2)c(=O)n2nc(-c3cnc4c(ccn4C)c3)nc2n1CC(=O)Nc1ccc(C(F)(F)F)cc1Cl [WO2025049746, Example 252] | 21 | 19
CCc1c(N2CCN(C(=O)c3nc4c(cc3O)COCC4)CC2)c(=O)n2nc(-c3ccc4c(c3)COC4)nc2n1CC(=O)Nc1ccc(C(F)(F)F)cc1Cl [WO2025049746, Example 440] | 48 | 46
CCc1c(N2CCN(C(=O)c3ncnc(C)c3O)CC2)c(=O)n2nc(-c3ccc4c(c3)CC(C)O4)nc2n1CC(=O)Nc1ccc(C(F)(F)F)cc1Cl (stereo unspecified) [WO2025049746, Example 168] | 35 | 45

SMILES | IC50 [1] [nM] | IC50 [2] [nM]
CCc1c(N2CCN(C(=O)c3ncnc(C)c3O)CC2)c(=O)n2nc(-c3ccc4c(c3)CO[C@H]4C)nc2n1CC(=O)Nc1ccc(C(F)(F)F)cc1Cl [WO2025049746, Example 192] | 31 | 40
CCc1c(N2CCN(C(=O)c3cccn4ccnc34)CC2)c(=O)n2nc(C3=CCOCC3)nc2n1CC(=O)Nc1ccc(C(F)(F)F)cc1Cl [WO2025049746, Example 50] | 79.4 | 156
CCc1c(N2CCN(C(=O)c3ncnc(C)c3O)CC2)c(=O)n2nc(-c3cc(F)c4ncccc4c3F)nc2n1CC(=O)Nc1ccc(C(F)(F)F)cc1Cl [WO2025049746, Example 320] | 22 | 19
CCc1c(N2CCN(C(=O)c3ncnc(C)c3O)CC2)c(=O)n2nc(-c3nc4c(s3)CCC4)nc2n1CC(=O)Nc1ccc(C(F)(F)F)cc1Cl [WO2025049746, Example 210] | 31 | 38
CCc1c(N2CCN(C(=O)C(F)(F)CO)CC2)c(=O)n2nc(C3=CCOCC3)nc2n1CC(=O)Nc1ccc(C(F)(F)F)cc1Cl [WO2025049746, Example 56] | 139 | 737
CCc1c(N2CCN(C(=O)c3ncnc(C)c3O)CC2)c(=O)n2c(CO)c(-c3ccc4c(c3)COC4)nc2n1CC(=O)Nc1ccc(C(F)(F)F)cc1Cl [WO2025049746, Example 452] | 29700 | 9850
CCc1c(N2CCN(C(=O)c3ncnc(C)c3O)CC2)c(=O)n2nc(-c3cnc4nc(C)oc4c3)nc2n1CC(=O)Nc1ccc(C(F)(F)F)cc1Cl [WO2025049746, Example 282] | 53 | 47
CCc1c(N2CCN(C(=O)c3ncnc(C)c3O)CC2)c(=O)n2nc(-c3cccc4c3COCC4)nc2n1CC(=O)Nc1ccc(C(F)(F)F)cc1Cl [WO2025049746, Example 5] | 59.9 | 86.9
CCc1c(N2CCN(C(=O)c3ncnc(C)c3O)CC2)c(=O)n2nc(N3CCC3)nc2n1CC(=O)Nc1ccc(C(F)(F)F)c2c1CC2 [WO2025049746, Example 377] | 32 | 45
CCc1c(N2CCN(C(=O)c3ncnc(C)c3O)CC2)c(=O)n2nc(-c3cc4c(cc3C)COC4)nc2n1CC(=O)Nc1ccc(C(F)(F)F)cc1Cl [WO2025049746, Example 203] | 56 | 79
CCc1c(N2CCN(C(=O)c3ncnc(C)c3O)CC2)c(=O)n2nc(-c3ccc4c(c3)[C@@H](C(F)(F)F)OC4)nc2n1CC(=O)Nc1ccc(C(F)(F)F)cc1Cl [WO2025049746, Example 275] | 92 | 79
CCc1c(N2CCN(C(=O)c3ncnc(C)c3O)CC2)c(=O)n2nc(-c3ccc4c(c3)CC(C)(C)N4C(C)=O)nc2n1CC(=O)Nc1ccc(C(F)(F)F)cc1Cl [WO2025049746, Example 296] | 38 | 36
CCc1c(N2CCN(C(=O)C3(CO)CC3)CC2)c(=O)n2nc(C3=CCOCC3)nc2n1CC(=O)Nc1ccc(C(F)(F)F)cc1Cl [WO2025049746, Example 55] | 3350 | 5740
CCc1c(N2CCN(C(=O)c3ncnc(C)c3O)CC2)c(=O)n2nc(-c3cccc4c3COC4)nc2n1CC(=O)Nc1ccc(C(F)(F)F)cc1Cl [WO2025049746, Example 15] | 34.4 | 40
CCc1c(N2CCN(C(=O)c3ncnc(C)c3O)CC2)c(=O)n2nc(-c3cc4c(cc3F)C(C)(C)OC4)nc2n1CC(=O)Nc1ccc(C(F)(F)F)cc1Cl [WO2025049746, Example 211] | 32 | 36
CCc1c(N2CCN(C(=O)c3ncnc(C)c3O)CC2)c(=O)n2nc(-c3ccn4cncc4c3)nc2n1CC(=O)Nc1ccc(C(F)(F)F)cc1Cl [WO2025049746, Example 219] | 19 | 19
CCc1c(N2CCN(C(=O)c3ncnc(C)c3O)CC2)c(=O)n2nc(-c3cccc4c3COC(C)(C)C4)nc2n1CC(=O)Nc1ccc(C(F)(F)F)cc1Cl [WO2025049746, Example 222] | 45 | 40
CCc1c(N2CCN(C(=O)c3ncnc(C)c3O)CC2)c(=O)n2nc(-c3ccc4c(c3)[C@H](C)OC4)nc2n1CC(=O)Nc1ccc(C(F)(F)F)cc1Cl [WO2025049746, Example 189] | 29 | 34
CCc1c(N2CCN(C(=O)c3ncnc(C)c3O)CC2)c(=O)n2nc(N3CC4(COC4)C3)nc2n1CC(=O)Nc1ccc(C(F)(F)F)cc1Cl [WO2025049746, Example 26] | 62.1 | 76.8
CCc1c(N2CCN(C(=O)c3ncnc(C)c3O)CC2)c(=O)n2nc(-c3ccc4c(c3)CCO4)nc2n1CC(=O)Nc1ccc(SC(F)(F)F)cc1Cl [WO2025049746, Example 410] | 32 | 41
CCc1c(N2CCN(C(=O)c3ncnc(C)c3O)CC2)c(=O)n2nc(-c3cnc4cn(C)nc4c3)nc2n1CC(=O)Nc1ccc(C(F)(F)F)cc1Cl [WO2025049746, Example 300] | 57 | 68
